Patent US9820487B2, “Abscinazole” (NATIONAL UNIVERSITY CORPORATION SHIZUOKA UNIVERSITY, priority 2014, dated 2017)

Columns and labels:
[1] = molecular target: T1, abscisic acid 8′-hydroxylase CYP707A3 (Arabidopsis thaliana, UniProt Q9FH76); assay: Abscisic acid 8′-hydroxylase CYP707A3 inhibition test; type: biochemical; conditions: CYP707A3 + NADPH-P450 reductase ATR1, substrate ABA, 30° C. 10 minutes; IC50 calculated from two concentrations
T1 sequence (Q9FH76 1-463): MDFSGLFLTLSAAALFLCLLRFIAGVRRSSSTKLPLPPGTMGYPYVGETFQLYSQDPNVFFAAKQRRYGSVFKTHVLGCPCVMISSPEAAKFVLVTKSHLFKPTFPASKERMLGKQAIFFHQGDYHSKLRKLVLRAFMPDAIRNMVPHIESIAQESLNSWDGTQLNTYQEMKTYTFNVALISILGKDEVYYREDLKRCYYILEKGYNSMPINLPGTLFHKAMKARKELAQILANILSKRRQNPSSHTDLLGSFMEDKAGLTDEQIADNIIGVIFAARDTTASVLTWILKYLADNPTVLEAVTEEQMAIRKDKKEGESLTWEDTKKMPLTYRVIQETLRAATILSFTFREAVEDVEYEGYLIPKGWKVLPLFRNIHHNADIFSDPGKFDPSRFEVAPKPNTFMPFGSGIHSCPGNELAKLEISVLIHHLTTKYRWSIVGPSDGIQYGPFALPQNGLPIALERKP
Description: In a 1.5 mL microtube, 10 μL of a solution of substrate 250 μM ABA in potassium/phosphate buffer (KPB), 5 μL of a solution of the sample in dimethylformamide, 435 μL of KPB and 40 μL of abscisic acid 8′-hydroxylase CYP707A3+NADPH-P450 reductase ATR1 were put and heated at 30° C. for 10 minutes. 10 μL of a solution of 5 mg/mL NADPH in KPB was added thereto thereby starting the enzyme reaction. The reaction was carried out at 30° C. for 10 minutes at a rotation speed of 1000 rpm, and 25 μL of an aqueous solution of 1 M sodium hydroxide was added thereto thereby terminating the reaction. The reaction solution was allowed to stand at 4° C. for 30 minutes and subsequently 50 μL of 1 M hydrochloric acid was added thereto to convert the enzyme metabolite to phaseic acid (PA). The enzyme reaction solution was subjected to an OASIS HLB cartridge (1 cc, 30 mg; washed with 1 mL of methanol (1% acetic acid) and equilibrated with 1 mL of water (1% acetic acid)) and washed with 1 mL of 10% methanol/water (1% acetic acid) thereby eluting phaseic acid with 1 mL of methanol (1% acetic acid). The eluate was concentrated under reduced pressure (toluene was added to azeotrope acetic acid), the obtained substance was dissolved in 50 μL of methanol. 20 μL of the solution was subjected to HPLC (column, YMC-Pack Hydrosphere C18 (6 mm inner diameter×150 mm length); flow rate 1 mL/min; detection 254 nm) analysis. The CYP707A3 inhibition rate of the samples was calculated in accordance with the following formula (3). Note that dimethylformamide was used for the control in place of the sample solution. Each sample was tested with two different concentrations to calculate the 50% inhibition concentration (IC50) based on the enzyme inhibition rates thereof The results are shown in Table 1.
Enzyme inhibition rate (%)={1-(PA peak area of each sample/PA peak area of control)}×100 . . . (3)

[2] = molecular target: T2, ent-kaurene oxidase CYP701A6 (Oryza sativa subsp. japonica, UniProt Q5Z5R4); assay: Ent-kaurene oxidase CYP701A6 inhibition test; type: biochemical; conditions: CYP701A6 + NADPH-P450 reductase ATR2, substrate ent-kaurene, 30° C. 30 minutes; IC50 calculated from two concentrations
T2 sequence (Q5Z5R4 1-505): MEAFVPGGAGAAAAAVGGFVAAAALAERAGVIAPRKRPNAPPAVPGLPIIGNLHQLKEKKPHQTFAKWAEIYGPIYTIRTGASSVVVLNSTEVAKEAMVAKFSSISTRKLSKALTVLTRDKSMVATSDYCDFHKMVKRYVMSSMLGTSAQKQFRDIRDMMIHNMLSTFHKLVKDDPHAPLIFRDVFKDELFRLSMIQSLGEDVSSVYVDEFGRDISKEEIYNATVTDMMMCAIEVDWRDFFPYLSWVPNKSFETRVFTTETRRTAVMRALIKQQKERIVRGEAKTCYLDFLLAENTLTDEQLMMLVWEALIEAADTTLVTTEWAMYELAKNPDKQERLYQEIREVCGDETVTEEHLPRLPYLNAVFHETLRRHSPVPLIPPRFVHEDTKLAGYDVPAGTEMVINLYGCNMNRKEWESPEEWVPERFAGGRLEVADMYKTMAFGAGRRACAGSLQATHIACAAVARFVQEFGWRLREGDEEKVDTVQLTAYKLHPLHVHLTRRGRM
Description: To a 1.5 mL microtube, 8 μL of an aqueous solution of 500 μM ent-kaurene as a substrate in 45% cyclodextrin and 8μL of a solution of the sample in dimethylformamide were put. 10 μL of 2.32 μM ent-kaurene oxidase CYP701A6 and 10 μL of 4.6 unit/mL NADPH-P450 reductase ATR2, heated at 30° C. for 5 minutes in advance, were added thereto. 304 μL of ultra-pure water, 40 μL of 500 mM KPB and 20 μL of an aqueous solution of 20 mM NADPH, heated at 30° C. for 10 minutes in advance, were added thereto thereby starting the enzyme reaction. The reaction was carried out at 30° C. for 30 minutes at a rotation speed of 1000 rpm and 100 μL of 1 M hydrochloric acid was added thereto thereby terminating the reaction. 5 μL of 10 μM abietic acid as the internal standard was added thereto, and the solution was extracted with 400 μL of ethyl acetate. The resultant was dried over sodium sulfate and subsequently concentrated under reduced pressure. 50 μL of methanol and 5 μL of 2 M trimethyl silyldiazomethane were added thereto to methylate carboxylic acid and the resultant was thy-solidified using nitrogen. The solidified product was dissolved in 150 μL of hexane and 1 μL of the resultant solution was subjected to a GC-MS analysis to detect the enzyme metabolite ent-kaurene acid. The CYP701A6 inhibition rate of the samples was calculated in accordance with the following formula (4). Note that the peak area of ent-kaurene acid was calculated from the peak area of m/z 273 and that ent-kaurene acid was identified from the area ratio of m/z 257, 213. The peak area of abietic acid was calculated from the area of m/z 256, and abietic acid was identified from the area ratio of m/z 316. Note that dimethylformamide was used for the control in place of the sample solution. Each sample was tested with two different concentrations to act late the 50% inhibition concentration (IC50) based on the enzyme inhibition rates thereof.
Enzyme inhibition rate (%)={1-(Ent-kaurene acid peak area of each sample/Abietic acid peak area of each sample/(Ent-kaurene acid peak area of control/Abietic acid peak area of control }×100 . . . (4)

[3] = tested on: seeds of thale cress (Arabidopsis thaliana, Col-0); assay: Thale cress seed germination inhibition test (2); type: in vivo; conditions: 120 hours after seed plantation (FIG. 3)
Description: Seeds of thale cress (Arabidopsis thaliana, Col-0) were immersed in […] an aqueous solution of 70% ethanol for 30 minutes, subsequently in 500 μL of 100% ethanol for 1 minute, washed three times in 1 mL of distilled water, then immersed in distilled water and, in a dark place, verbalized at 4° C. for 3 days. A solution of the sample in methanol and a solution of ABA in methanol were put in a 1.5 mL microtube, and methanol was removed therefrom under reduced pressure. An aqueous solution of 0.5% agar (containing 1/2 MS medium inorganic salts) at 70° C. was added thereto, followed by stirring the resultant. The obtained solution was placed in a 96-well plate to provide the medium containing the sample. 20 to 30 vernalized seeds of thale cress were planted in each well and cultured at 22° C. under continuous light to monitor the number of seeds germinated over time. The germination rate was calculated in accordance with the following formula (1). Note that the medium prepared using methanol in the same manner as above was used as an untreated control and a germination rate of 100% was achieved 72 hours later from the seed plantation. Germination rates 72 hours later from the seed plantation are shown in FIG. 1 and initial growth conditions of thale cress 120 hours later are shown in FIG. 2.
Germination rate (%)=Number of seeds germinated/Number of seeds planted×100 . . . (1) […]

CCCCOCCOCCOCc1cn(-c2ccc(/C=C(\C(O)C(C)(C)C)n3cncn3)cc2)nn1 (single isomer, unassigned) [Comparative Example 1 (+) Form, 1-(4-(4-((2-(2-butoxyethoxy)ethoxy)methyl)-1H-1,2,3-triazol-1-yl)phenyl)-4,4-dimethyl-2-(1H-1,2,4-triazol-1-yl)pent-1-en-3-ol, reference compound]
potency estimated from few doses [1]: 1100 nM
potency estimated from few doses [2]: 1300 nM

CCCCOCCOCCOCc1cn(-c2ccc(/C=C(\C(O)C(C)(C)C)n3cncn3)cc2)nn1 (single isomer, unassigned) [Comparative Example 1 (−) Form, 1-(4-(4-((2-(2-butoxyethoxy)ethoxy)methyl)-1H-1,2,3-triazol-1-yl)phenyl)-4,4-dimethyl-2-(1H-1,2,4-triazol-1-yl)pent-1-en-3-ol, reference compound]
potency estimated from few doses [1]: 54 nM
potency estimated from few doses [2]: 1200 nM

COCCOCCOCCOCC#Cc1cccc(/C=C(\C(O)C(C)(C)C)n2cncn2)c1 (single isomer, unassigned) [Example 1 (+) Form, (E)-1-(3-(2,5,8,11-tetraoxatetradec-13-yn-14-yl)phenyl)-4,4-dimethyl-2-(1H-1,2,4-triazol-1-yl)pent-1-en-3-ol]
potency estimated from few doses [1]: 1200 nM
potency estimated from few doses [2]: 1600 nM

CCCCOCCOCCOCC#Cc1cccc(/C=C(\C(O)C(C)(C)C)n2cncn2)c1 (single isomer, unassigned) [Example 2 (+) Form, (E)-1-(3-(3-(2-(2-butoxyethoxy)ethoxy)prop-1-yn-1-yl)phenyl)-4,4-dimethyl-2-(1H-1,2,4-triazol-1-yl)pent-1-en-3-ol]
potency estimated from few doses [1]: 240 nM
potency estimated from few doses [2]: 120 nM

CCCCOCCOCCOCC#Cc1cccc(/C=C(\C(O)C(C)(C)C)n2cncn2)c1 (single isomer, unassigned) [Example 2 (−) Form, (E)-1-(3-(3-(2-(2-butoxyethoxy)ethoxy)prop-1-yn-1-yl)phenyl)-4,4-dimethyl-2-(1H-1,2,4-triazol-1-yl)pent-1-en-3-ol]
seed germination inhibition compared with (−) form of Comparative Example 1 [3]: can inhibit the seed germination even in lower concentrations
potency estimated from few doses [1]: 12 nM
potency estimated from few doses [2]: 62 nM

COCCOCCOCCOCC#Cc1ccc(/C=C(\C(O)C(C)(C)C)n2cncn2)cc1 (single isomer, unassigned) [Example 3 (+) Form, (E)-1-(4-(2,5,8,11-tetraoxatetradec-13-yn-14-yl)phenyl)-4,4-dimethyl-2-(1H-1,2,4-triazol-1-yl)pent-1-en-3-ol]
potency estimated from few doses [1]: 7700 nM
potency estimated from few doses [2]: 17000 nM

COCCOCCOCCOCC#Cc1ccc(/C=C(\C(O)C(C)(C)C)n2cncn2)cc1 (single isomer, unassigned) [Example 3 (−) Form, (E)-1-(4-(2,5,8,11-tetraoxatetradec-13-yn-14-yl)phenyl)-4,4-dimethyl-2-(1H-1,2,4-triazol-1-yl)pent-1-en-3-ol]
potency estimated from few doses [1]: 1500 nM
potency estimated from few doses [2]: 8600 nM

CCCCOCCOCCOCC#Cc1ccc(/C=C(\C(O)C(C)(C)C)n2cncn2)cc1 (single isomer, unassigned) [Example 4 (+) Form]
potency estimated from few doses [1]: 1000 nM
potency estimated from few doses [2]: 1500 nM

CCCCOCCOCCOCC#Cc1ccc(/C=C(\C(O)C(C)(C)C)n2cncn2)cc1 (single isomer, unassigned) [Example 4 (−) Form]
potency estimated from few doses [1]: 200 nM
potency estimated from few doses [2]: 770 nM
